Experimental data reported in patent publication US10167262B2, “Herbicidal substituted 3-arylpyrazoles” (FMC CORPORATION, priority 2014, dated 2019).

Assays:
Format in all cases: in vivo
wild oat (Avena fatua) = assay: Test C postemergence greenhouse test, plant response rating 0-100; conditions: for Plant response rating, Oat, Wild: scale 0 to 100
Outline: (§1)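 Visual rating vs. controls, 0 (no effect) to 100 (complete control), 13–15 d after postemergence treatment. Potted plants, 1- to 4-leaf stage (2–18 cm), greenhouse-held.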

[1] = system: chickweed (common chickweed, Stellaria media); assay: as above; conditions: for Plant response rating, Chickweed: scale 0 to 100
Outline: as §1

kochia (Kochia scoparia) = assay: as above; conditions: for Plant response rating, Kochia: scale 0 to 100
Outline: as §1

[2] = system: galium (catchweed bedstraw, Galium aparine); assay: Test C pre-/postemergence greenhouse test, plant response rating 0-100
Outline: (§2)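 Greenhouse test. Preemergence: seed in loam:sand, sprayed with formulated chemical (solvent + surfactant). Postemergence: 1–4 leaf plants, 2–18 cm, peat-based potting medium. Hold 13–15 d; score visually, 0 (none) to 100 (complete control); dash = not tested.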

[3] = system: winter wheat (Triticum aestivum); assay: as above
Outline: as §2

[4] = system: pigweed (Amaranthus retroflexus); assay: as above
Outline: as §2

corn (Zea mays) = assay: as above
Outline: as §2

[5] = system: johnsongrass (Sorghum halepense); assay: as above
Outline: as §2

[6] = system: yellow nutsedge (Cyperus esculentus); assay: as above
Outline: as §2

[7] = system: Italian ryegrass (Lolium multiflorum); assay: as above
Outline: as §2

[8] = system: giant foxtail (Setaria faberii); assay: as above
Outline: as §2

soybean (Glycine max) = assay: as above
Outline: as §2

[9] = system: lambsquarters (Chenopodium album); assay: as above
Outline: as §2

[10] = Postemergence, 250 g ai/ha, scale 0 to 100
[11] = Postemergence, 500 g ai/ha, scale 0 to 100

O=Cn1cc(C(=O)c2ccccc2)c(-c2cc(Cl)cc(Cl)c2)n1 [Compound 28]
Plant response rating (0 to 100), Oat, Wild (wild oat (Avena fatua); 62 g ai/ha): 0
Plant response rating (0 to 100), Oat, Wild (wild oat (Avena fatua); 125 g ai/ha): 0
Plant response rating, Oat, Wild (wild oat (Avena fatua); 250 g ai/ha): 0
Plant response rating, Oat, Wild (wild oat (Avena fatua); 500 g ai/ha): 0
Plant response rating (0 to 100), Chickweed ([1]; 62 g ai/ha): 95
Plant response rating (0 to 100), Chickweed ([1]; 125 g ai/ha): 95
Plant response rating, Chickweed ([1]; 250 g ai/ha): 100
Plant response rating, Chickweed ([1]; 500 g ai/ha): 98
Plant response rating (0 to 100), Kochia (kochia (Kochia scoparia); 62 g ai/ha): 80
Plant response rating (0 to 100), Kochia (kochia (Kochia scoparia); 125 g ai/ha): 85
Plant response rating, Kochia (kochia (Kochia scoparia); 250 g ai/ha): 85
Plant response rating, Kochia (kochia (Kochia scoparia); 500 g ai/ha): 90
Plant response rating (0 to 100), Galium ([2]; Postemergence, 62 g ai/ha): 5
Plant response rating (0 to 100), Galium ([2]; Postemergence, 125 g ai/ha): 40
Plant response rating, Galium [2, 10]: 35
Plant response rating, Galium [2, 11]: 30
Plant response rating, Galium ([2]; Preemergence, 62 g ai/ha): 20
Plant response rating, Galium ([2]; Preemergence, 125 g ai/ha): 80
Plant response rating, Galium ([2]; Preemergence, 250 g ai/ha): 80
Plant response rating, Galium ([2]; Preemergence, 500 g ai/ha): 80
Plant response rating (0 to 100), Wheat ([3]; Postemergence, 62 g ai/ha): 0
Plant response rating (0 to 100), Wheat ([3]; Postemergence, 125 g ai/ha): 0
Plant response rating, Wheat [3, 10]: 0
Plant response rating, Wheat [3, 11]: 0
Plant response rating, Wheat ([3]; Preemergence, 62 g ai/ha): 0
Plant response rating, Wheat ([3]; Preemergence, 125 g ai/ha): 0
Plant response rating, Wheat ([3]; Preemergence, 250 g ai/ha): 0
Plant response rating, Wheat ([3]; Preemergence, 500 g ai/ha): 0
Plant response rating (0 to 100), Pigweed ([4]; Postemergence, 62 g ai/ha): 90
Plant response rating (0 to 100), Pigweed ([4]; Postemergence, 125 g ai/ha): 98
Plant response rating, Pigweed [4, 10]: 98
Plant response rating, Pigweed [4, 11]: 100
Plant response rating, Pigweed ([4]; Preemergence, 62 g ai/ha): 100
Plant response rating, Pigweed ([4]; Preemergence, 125 g ai/ha): 100
Plant response rating, Pigweed ([4]; Preemergence, 250 g ai/ha): 100
Plant response rating, Pigweed ([4]; Preemergence, 500 g ai/ha): 100
Plant response rating (0 to 100), Corn (corn (Zea mays); Postemergence, 62 g ai/ha): 0
Plant response rating (0 to 100), Corn (corn (Zea mays); Postemergence, 125 g ai/ha): 0
Plant response rating, Corn (corn (Zea mays); [10]): 0
Plant response rating, Corn (corn (Zea mays); [11]): 0
Plant response rating, Corn (corn (Zea mays); Preemergence, 62 g ai/ha): 0
Plant response rating, Corn (corn (Zea mays); Preemergence, 125 g ai/ha): 0
Plant response rating, Corn (corn (Zea mays); Preemergence, 250 g ai/ha): 0
Plant response rating, Corn (corn (Zea mays); Preemergence, 500 g ai/ha): 0
Plant response rating (0 to 100), Johnsongrass ([5]; Postemergence, 62 g ai/ha): 0
Plant response rating (0 to 100), Johnsongrass ([5]; Postemergence, 125 g ai/ha): 0
Plant response rating, Johnsongrass [5, 10]: 0
Plant response rating, Johnsongrass [5, 11]: 0
Plant response rating, Johnsongrass ([5]; Preemergence, 62 g ai/ha): 0
Plant response rating, Johnsongrass ([5]; Preemergence, 125 g ai/ha): 0
Plant response rating, Johnsongrass ([5]; Preemergence, 250 g ai/ha): 0
Plant response rating, Johnsongrass ([5]; Preemergence, 500 g ai/ha): 0
Plant response rating (0 to 100), Nutsedge, Yellow ([6]; Postemergence, 62 g ai/ha): 0
Plant response rating (0 to 100), Nutsedge, Yellow ([6]; Postemergence, 125 g ai/ha): 0
Plant response rating, Nutsedge, Yellow [6, 10]: 5
Plant response rating, Nutsedge, Yellow [6, 11]: 0
Plant response rating, Nutsedge, Yellow ([6]; Preemergence, 62 g ai/ha): 0
Plant response rating, Nutsedge, Yellow ([6]; Preemergence, 125 g ai/ha): 0
Plant response rating, Nutsedge, Yellow ([6]; Preemergence, 250 g ai/ha): 0
Plant response rating, Nutsedge, Yellow ([6]; Preemergence, 500 g ai/ha): 0
Plant response rating (0 to 100), Ryegrass, Italian ([7]; Postemergence, 62 g ai/ha): 0
Plant response rating (0 to 100), Ryegrass, Italian ([7]; Postemergence, 125 g ai/ha): 0
Plant response rating, Ryegrass, Italian [7, 10]: 0
Plant response rating, Ryegrass, Italian [7, 11]: 0
Plant response rating, Ryegrass, Italian ([7]; Preemergence, 62 g ai/ha): 0
Plant response rating, Ryegrass, Italian ([7]; Preemergence, 125 g ai/ha): 0
Plant response rating, Ryegrass, Italian ([7]; Preemergence, 250 g ai/ha): 0
Plant response rating, Ryegrass, Italian ([7]; Preemergence, 500 g ai/ha): 0
Plant response rating (0 to 100), Foxtail, Giant ([8]; Postemergence, 62 g ai/ha): 0
Plant response rating (0 to 100), Foxtail, Giant ([8]; Postemergence, 125 g ai/ha): 5
Plant response rating, Foxtail, Giant [8, 10]: 0
Plant response rating, Foxtail, Giant [8, 11]: 0
Plant response rating, Foxtail, Giant ([8]; Preemergence, 62 g ai/ha): 0
Plant response rating, Foxtail, Giant ([8]; Preemergence, 125 g ai/ha): 0
Plant response rating, Foxtail, Giant ([8]; Preemergence, 250 g ai/ha): 10
Plant response rating, Foxtail, Giant ([8]; Preemergence, 500 g ai/ha): 10
Plant response rating (0 to 100), Soybean (soybean (Glycine max); Postemergence, 62 g ai/ha): 0
Plant response rating (0 to 100), Soybean (soybean (Glycine max); Postemergence, 125 g ai/ha): 0
Plant response rating, Soybean (soybean (Glycine max); [10]): 5
Plant response rating, Soybean (soybean (Glycine max); [11]): 5
Plant response rating, Soybean (soybean (Glycine max); Preemergence, 62 g ai/ha): 0
Plant response rating, Soybean (soybean (Glycine max); Preemergence, 125 g ai/ha): 0
Plant response rating, Soybean (soybean (Glycine max); Preemergence, 250 g ai/ha): 0
Plant response rating, Soybean (soybean (Glycine max); Preemergence, 500 g ai/ha): 0
Plant response rating (0 to 100), Lambsquarters ([9]; Postemergence, 62 g ai/ha): 90
Plant response rating (0 to 100), Lambsquarters ([9]; Postemergence, 125 g ai/ha): 90
Plant response rating, Lambsquarters [9, 10]: 98
Plant response rating, Lambsquarters [9, 11]: 98
Plant response rating, Lambsquarters ([9]; Preemergence, 62 g ai/ha): 100
Plant response rating, Lambsquarters ([9]; Preemergence, 125 g ai/ha): 100
Plant response rating, Lambsquarters ([9]; Preemergence, 250 g ai/ha): 100
Plant response rating, Lambsquarters ([9]; Preemergence, 500 g ai/ha): 100
